Entries after “also recorded” stand apart in the source; their conditions may differ.
How the values were obtained:
[1] = system: HCT-116 and HCT-FET cells; assay: Chemosensitization (caspase-3 cleavage) of colorectal cancer cells to 5′FU; format: cell-based, human
Experimental: FIG. 16. […] (A) Ovarian cancer (OVCAR-8 and ES-2) cells were treated with indicated concentrations of Doxorubicin (Doxo) alone or in combination with STL001 for 24 hrs. […] (C) colon cancer (HCT-116 and FET) cells were treated with indicated concentrations of 5′FU alone or in combination with STL001 for 24 hrs.

FOXM1 [2] = target: T1, FOXM1 (Homo sapiens, UniProt Q08050); assay: FOXM1 protein levels by immunoblotting in solid cancer cell lines
T1 sequence (Q08050 1-763): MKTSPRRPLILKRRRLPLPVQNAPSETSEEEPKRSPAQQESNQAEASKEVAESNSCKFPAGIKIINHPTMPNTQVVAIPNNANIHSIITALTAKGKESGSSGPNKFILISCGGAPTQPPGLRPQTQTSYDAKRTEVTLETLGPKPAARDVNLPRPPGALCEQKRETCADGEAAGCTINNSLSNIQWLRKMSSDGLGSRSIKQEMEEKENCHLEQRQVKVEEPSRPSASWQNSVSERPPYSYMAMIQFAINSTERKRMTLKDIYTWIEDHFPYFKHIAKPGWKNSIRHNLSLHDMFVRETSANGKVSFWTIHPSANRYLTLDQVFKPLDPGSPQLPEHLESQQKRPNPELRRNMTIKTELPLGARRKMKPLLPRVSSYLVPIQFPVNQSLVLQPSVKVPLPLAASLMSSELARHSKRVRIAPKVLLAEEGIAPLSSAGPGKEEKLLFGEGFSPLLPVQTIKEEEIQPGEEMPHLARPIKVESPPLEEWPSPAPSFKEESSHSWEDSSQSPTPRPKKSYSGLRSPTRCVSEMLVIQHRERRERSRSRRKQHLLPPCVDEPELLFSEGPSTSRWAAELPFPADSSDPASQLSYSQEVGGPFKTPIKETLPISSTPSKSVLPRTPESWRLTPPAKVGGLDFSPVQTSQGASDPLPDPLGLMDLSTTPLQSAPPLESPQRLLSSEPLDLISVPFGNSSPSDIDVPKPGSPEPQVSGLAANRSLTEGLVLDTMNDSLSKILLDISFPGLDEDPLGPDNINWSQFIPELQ
Experimental: Cell culture: Human cell lines LNCaP and 22Rv1 (human prostate carcinoma), OVCAR8 and ES-2 (High-grade serous ovarian cancer, HGSOC), HCT-116 and HCT-FET (human colorectal carcinoma), HCC-1143 (triple negative breast cancer (TNBC), TAMR (Tamoxifen resistant MCF7) human breast cancer, were provided from various investigators. LNCaP and 22Rv1 cell lines were cultured in RPMI-1640 with 2 mM L-Glutamine (Gibco; Thermo Fisher Scientific, Waltham, MA, USA). HCC-1143 cell lines were cultured in Iscove's Modified Dulbecco Medium (IMDM) with 2 mM L-Glutamine (Gibco; Thermo Fisher Scientific). OVCAR-8, ES-2, HCT-116, and HCT-FET cell lines were cultured in Dulbecco's Modified Eagle Medium (DMEM) with 4.5 g/L glucose and 4 mM L-Glutamine (Gibco; Thermo Fisher Scientific). For all cell lines, the growth media was supplemented with 10% Foetal Bovine Serum (FBS), penicillin (100 U/mL), and 100 μg/mL streptomycin (Gibco; Thermo Fisher Scientific). TAMR cells were routinely cultured in DMEM/F12 medium without phenol red (Gibco; Thermo Fisher Scientific), containing 1% charcoal-striped FBS, 2.5 mM L-Glutamine (Thermo Fisher Scientific), 6 ng/mL insulin (Millipore Sigma) and 50 nM 4-hydroxytamoxifen (4-OHT; Millipore Sigma). All cell lines were grown and maintained at 37° C. in a humidified incubator with 5% CO2. Sub-confluent cultures (70-80%) were split 1:5 using 0.25% Trypsin/EDTA (Millipore Sigma).
Drug treatment of cultured cells: After harvesting, cells were counted in presence of Trypan Blue (Thermo Fisher Scientific) and seeded onto tissue culture plates to achieve ~50% confluency. The next day, treatment of cells was performed by aspirating the nonadherent cells and growth medium and replacing it with the fresh one containing selected concentrations of drugs. For Tamoxifen based studies, the nonadherent cells and growth media was aspirated and replaced with the DMEM supplemented with 4.5 g/L glucose and 4 mM L-Glutamine, 10% FBS, penicillin (100 U/mL), 100 μg/mL streptomycin, 10 nM estrogen, and selected concentrations of drugs. […] Post-treatment at selected times, the cells were harvested, washed with ice-cold PBS and used for protein or RNA purification as described below.
Protein immunoblotting: Total protein was extracted using ice-cold radio-immunoprecipitation assay (RIPA) buffer (Millipore Sigma) supplemented with Halt protease- and phosphatise-inhibitor cocktails (Fisher Scientific), 2 mM sodium orthovanadate (New England Biolabs, Inc., USA), and 5 mM sodium fluoride (Millipore Sigma) according to the manufacturer's protocol. Protein content in each sample was estimated using Bio-Rad Protein Assay (Bio-Rad, USA). Equal amounts of protein (20-30 μg) were separated on hand-cast SDS/PAGE (6-12%) mini-protein gels and transferred to 0.2 μm Immobilon-Psq polyvinylidene difluoride (PVDF) transfer membrane (Millipore Sigma). Membranes were blocked with 4% bovine serum albumin (BSA; Millipore Sigma) in TRIS-buffered saline (TBS) with 0.1% Tween-20 (TBS-T, Thermo Fisher Scientific) and probed overnight at 4° C. with the primary antibodies (FOXM1, Cell Signaling Technology (CST), Inc., USA; Cleaved Caspase-3, CST; β-actin, Thermo Fisher Scientific) diluted according to the manufacturer's protocol. […] After incubating membranes with the secondary antibodies, the membranes were then washed three times for 10 min each with TBST. Protein bands were developed using SuperSignal™ West Pico PLUS Chemiluminescent Substrate (Thermo Fisher Scientific) and detected using ChemiDoc Imaging System (Bio-Rad).

FOXM1 [3] = target: T1, FOXM1; assay: FOXM1 protein levels by immunoblotting in leukemia/AML cell lines; format: cell-based; design: Total protein samples obtain from treated cells were analyzed for FOXM1 protein levels via immunoblotting; endogenous in cells; host or cells: KG-1, HL-60, K562, THP-1 leukemia cell lines; conditions: for effect on FOXM1 protein levels suppressed by STL001 / FOXM1 level: KG-1 cells; for effect on FOXM1 protein levels suppressed by STL001: co-treatment with STL001, 24 h
Experimental: [a] Leukemia cells, KG-1, HL-60 and K562 were treated with increasing concentrations of STL427944 for 24 hrs. […] [b] THP1 and KG-1 cells were treated with indicated concentrations of venetoclax and STL427944 alone or in combination for 24 hrs. [c] KG-1 and K562 cells were treated with indicated concentrations of cytarabine and STL427944 alone or in combination for 24 hrs.
FIG. 8. STL427944 treatment of human leukemia cell lines suppress FOXM1 protein expression. (a) STL427944 treatment of human leukemia cell lines inhibit FOXM1 protein expression and sensitize cells to venetoclax treatment. […] (b) Stable shRNA-mediated FOXM1 knockdown prominently sensitizes KG-1 cells to cytotoxic effect of venetoclax. (c, d) combined treatment with STL427944 and venetoclax suppresses FOXM1 in KG-1 and THP-1 cells and synergistically promotes cytotoxic effects similarly to FOXM1 knockdown. Total protein was isolated from cells immediately after the treatment and analyzed via immunoblotting with FOXM1 antibodies). Apoptosis induction was estimated based on caspase-3 cleavage.
FIGS. 9A and 9B: Novel FOXM1 inhibitor STL001 sensitizes Leukemia cells to chemotherapy agents. [a] Structural formula of novel FOXM1 inhibitor STL001. [b] Leukemia cells, KG-1, HL-60, and K562 were treated with increasing concentrations of STL001 for 24 hrs. […] [c] KG-1 cells were treated with indicated concentrations of Laptomycin B, Chloroquine, and STL001 for 24 hrs. […] [d] KG-1, HL-60, and K562 cells were treated with indicated concentrations of venetoclax and STL001 alone or in combination for 24 hrs. [e] KG-1, HL-60, and K562 cells were treated with indicated concentrations of cytarabine and STL alone or in combination for 24 hrs.
FIGS. 13A-13H STL001 is a novel FOXM1 inhibitor that sensitizes leukemia cells to standard cytotoxic and bcl2 inhibitor therapies. FIG. 13A AML cell line KG-1 treated with precursor compound STL427944. FIG. 3B AML cell lines KG-1, HL-60, and K562 were treated with increasing concentrations of STL001 for 24 h. Total protein samples obtained from treated cells were analyzed for FOXM1 protein levels using immunoblotting; β-actin was used as the internal loading control. FIG. 13C KG-1, HL-60, and K562 cells were treated with indicated concentrations of venetoclax and STL001 alone or in combination for 24 h. FIG. 13D KG-1, HL-60, and K562 cells were treated with indicated concentrations of cytarabine and STL001 alone or in combination for 24 h. […] FIG. 13E KG-1 cells were treated with indicated concentrations of Leptomycin B, Chloroquine, and STL001 for 24 h. Total protein samples obtained from treated cells were analyzed for FOXM1 protein levels via immunoblotting; β-actin was used as an internal loading control. FIG. 13F KG-1 cell lines with shRNA knockdown of FOXM1 were treated with venetoclax and STL001 and compared to parental cells. FIG. 13G Real-time PCR-based expression profiling for canonical FOXM1 target genes was performed on primary AML mononuclear cells (n=5) treated ex vivo with STL001 5 μM for 24 h. Mean and standard error of the delta Ct for DMSO or treatment group are plotted for each gene. P-value is estimated by two-tailed paired t-test. Asterisks denote P<0.05. FIG. 13H Treatment of peripheral blood mononuclear cells with STL001 for 24 h followed by immunohistochemistry for FOXM1. Slides were scanned on an Aperio AT2 brightfield scanner and images were analyzed using HALO 2.0 software. Hematoxylin counterstain was used to segment nuclei within the ROIs and to establish an accurate cell count. Percent cells with nuclear FOXM1 expression compared between DMSO and STL001 treated cells. P-value is based on one-tailed paired t-test.

FOXM1 [4] = target: T1, FOXM1; design: Total protein samples obtain from treated cells were analyzed for FOXM1 protein levels via immunoblotting; endogenous in cells; conditions: solid cancer cell lines; cited from earlier work
[5] = system: KG-1, HL-60, K562, THP-1 cells; format: cell-based
FOXM1 [6] = target: T1, FOXM1; design: Total protein samples obtain from treated cells were analyzed for FOXM1 protein levels via immunoblotting; endogenous in cells; host or cells: KG-1, HL-60, K562, THP-1 leukemia cell lines; conditions: cited from earlier work
NPM1c mutant AML cells = conditions: cited from earlier work
HCC-1143 cells = system: HCC-1143 cells
Experimental: (§1) FIG. 17. […] (A) Prostate cancer (22RV1 and LNCaP) cells were treated with indicated concentrations of paclitaxel alone or in combination with STL001 for 24 hrs. (B) Tamoxifen resistance MCF-7 breast cancer cells (TAM-R) were treated with indicated concentrations of Tamoxifen alone or in combination with STL001 for 24 hrs. In all cases, total protein samples were obtained from cells immediately after treatment and analyzed for FOXM1, cleaved caspase-3 levels via immunoblotting, β-actin was used as internal loading control (n=3). (C) Percent (%) dead cells in TAM-R cells treated with indicated concentrations of Tamoxifen alone or in combination with STL001 for 24 hrs. […] (F) HCC 143 cells with stable shRNA-mediated FOXM1 knockdown (KD) were treated with doxorubicin alone or in combination with STL001 for 24 hrs and compared to parental cells under the same treatment conditions. In all cases, total protein samples were obtained from cells immediately after treatment and analyzed for FOXM1, cleaved caspase-3 levels via immunoblotting, β-actin was used as internal loading control (n=3).
Stable FOXM1-expression knockdown in cancer cell: Cells were seeded on commercially available 12-well tissue culture plates to achieve ~40% confluency. […] Transduced cells were selected by their cultivation with puromycin (1.0 μg/mL) for 10 days and then maintained without puromycin as described above.

22RV1, LNCaP cells = system: 22RV1, LNCaP cells
Experimental: as §1

TAMR cells = format: cell-based
Experimental: as §1

## O=c1[nH]cc(F)c(=O)[nH]1 [5′FU, 5-fluorouracil]
[1]
  cell death, chemotherapeutic alone: without evident cell death
FOXM1 [2]; HCT-116 and HCT-FET
  FOXM1 level, chemotherapeutic alone: FOXM1 upregulation

## CCN(CC)CCCC(C)Nc1ccnc2cc(Cl)ccc12 (stereo not drawn) [Chloroquine]
FOXM1 [3]
  effect on FOXM1 protein levels suppressed by STL001: rescued FOXM1 protein levels

## CCC(=C/[C@H](C)C/C=C/C(C)=C/[C@@H](C)C(=O)[C@@H](C)[C@H](O)[C@@H](C)C/C(C)=C/C(=O)O)/C=C/[C@@H]1OC(=O)C=C[C@@H]1C [Leptomycin B]
FOXM1 [3]
  effect on FOXM1 protein levels suppressed by STL001: rescued FOXM1 protein levels

## O=C(Oc1cccc(/C=N/Nc2nc(Nc3ccccc3)nc(N3CCOCC3)n2)c1)c1ccco1 [STL427944]
FOXM1 [3]; AML cell line KG-1
  concentration showing modest FOXM1 inhibition: 25 µM
FOXM1 [3]; estimated
  Potency in AML: uM range
FOXM1 [3]; leukemia cell lines, increasing concentrations, 24 h
  FOXM1 protein levels: dose-dependent suppression of FOXM1 protein levels; also recorded: efficiently reduces FOXM1 protein levels
FOXM1 [4]
  concentrations showing modest FOXM1 suppression: 25 to 50 µM
FOXM1 [2]; ovarian cancer cells (ES-2, OVCAR-8)
  efficacy in knocking down FOXM1 expression: lesser efficacy as compared to STL001
[5]; KG-1/THP-1 cells
  apoptosis (caspase-3 cleavage) in combination with venetoclax: synergetic induction of apoptosis
[5]; KG-1 cells, versus shRNA FOXM1 knockdown
  efficiency of sensitization to venetoclax treatment: comparable to effects caused by shRNA-mediated FOXM1 knockdown
[5]; THP1, KG-1, K562 cells, 24 hrs
  effect on cytotoxicity of chemotherapeutic drugs (venetoclax, cytarabine): enhances the cytotoxic effect of conventional chemotherapeutic drugs
FOXM1 [6]; human cancer cells
  sensitivity of treated human cancer cells to platinum-based agents, 5-fluorouracil, taxanes: increased sensitivity to cytotoxic effects of conventional chemotherapeutic treatments
FOXM1 [6]; relocalization of nuclear FOXM1 to cytoplasm, degradation by autophagosomes
  effect on FOXM1: selectively suppresses FOXM1

## CC(C)N(C(=O)c1cc(F)ccc1Oc1cncnc1N1CC2(CCN(CC3CCC(NS(C)(=O)=O)CC3)CC2)C1)C(C)C (stereo not drawn) [VTP-50469]
NPM1c mutant AML cells; knock-in murine model
  leukemia development in the knock-in murine model: prevent leukemia development
NPM1c mutant AML cells; oral inhibitor, xenografts
  effect on NPM1c mutant AML cells in xenografts: able to eradicate NPM1c mutant AML cells in xenografts

## CC(C)C[C@H](NC(=O)[C@H](Cc1ccccc1)NC(=O)c1cnccn1)B(O)O [bortezomib]
FOXM1 [3]
  FOXM1 level: down-regulation of FOXM1
[5]; KG-1 cells
  apoptosis (caspase-3 cleavage) in combination with cytarabine: synergistic induction of apoptosis

## COc1cccc2c1C(=O)c1c(O)c3c(c(O)c1C2=O)C[C@@](O)(C(=O)CO)C[C@@H]3O[C@H]1C[C@H](N)[C@H](O)[C@H](C)O1 [doxorubicin]
HCC-1143 cells
  cytotoxic effects, DNA-damaging agent alone: without showing prominent cytotoxic effects
FOXM1 [2]; HCC-1143, sub-lethal concentrations
  cellular FOXM1 protein, DNA-damaging agent alone: significantly higher levels of cellular FOXM1 protein
FOXM1 [2]; OVCAR-8, ES-2, sub-lethal concentrations
  FOXM1 protein abundance, chemotherapeutic alone: significant increase in FOXM1 protein abundance

## CC(=O)O[C@H]1C(=O)[C@@]2(C)[C@H]([C@H](OC(=O)c3ccccc3)[C@]3(O)C[C@H](OC(=O)[C@H](O)[C@@H](NC(=O)c4ccccc4)c4ccccc4)C(C)=C1C3(C)C)[C@]1(OC(C)=O)CO[C@@H]1C[C@@H]2O [paclitaxel]
FOXM1 [2]; 22RV1, LNCaP, sublethal concentrations
  cellular FOXM1 protein levels, chemotherapeutic alone: prominent increase in cellular FOXM1 protein levels
22RV1, LNCaP cells
  cytotoxic effects, chemotherapeutic alone: without showing any cytotoxic effects

## CC/C(=C(\c1ccccc1)c1ccc(OCCN(C)C)cc1)c1ccccc1 [tamoxifen]
FOXM1 [2]; TAMR cells
  FOXM1 level, tamoxifen alone: FOXM1 upregulation
TAMR cells
  cell death, tamoxifen alone: without prominent cell death induction

## C=C(NC(=O)C(=C)NC(=O)c1csc(C2=N[C@@H]3c4csc(n4)[C@H]4NC(=O)c5csc(n5)[C@H]([C@](C)(O)[C@@H](C)O)NC(=O)[C@H]5CSC(=N5)/C(=C/C)NC(=O)[C@H]([C@@H](C)O)NC(=O)c5csc(n5)[C@]3(CC2)NC(=O)[C@H](C)NC(=O)C(=C)NC(=O)[C@H](C)NC(=O)[C@H]([C@@H](C)CC)N[C@@H]2C=Cc3c([C@H](C)O)cc(nc3[C@H]2O)C(=O)O[C@@H]4C)n1)C(N)=O [thiostrepton]
FOXM1 [3]
  FOXM1 level: down-regulation of FOXM1
[5]; KG-1 cells
  apoptosis (caspase-3 cleavage) in combination with cytarabine: synergistic induction of apoptosis

— patent publication US20260217691A1, “FOXM1 INHIBITORS AND THEIR USE IN TREATING CANCERS” (THE BOARD OF TRUSTEES OF THE UNIVERSITY OF ILLINOIS, priority 2022, published 2026)
